Assay results from paper PMC12186257, “Serendipitous and Systematic Chemoproteomic Discovery of MBLAC2, HINT1, and NME1‑4 Inhibitors from Histone Deacetylase-Targeting Pharmacophores” (ACS Chemical Biology, 2025).

Legend:
Toxoplasma gondii = tested on: Toxoplasma gondii; parameters: method as in PMID 33360687, PMID 35483428, PMID 38431113, PMID 29414107; conditions: in human host cells; cited from earlier work
[1] = tested on: casein kinase 2 (CK2) complex proteins (CSNK2A1/3, CSNK2A2, CSNK2B, EIF3J); experiment: Kinobead competition assay; type: binding, human
Text: The binding of KV-24 and KV-30 to the nucleotide-binding pocket raises the question of whether these compounds also target other nucleotide-binding proteins, such as kinases. To evaluate potential off-target effects, we performed Kinobead competition assays. This chemoproteomic approach is conceptually very similar to the one used here in that broad spectrum kinase inhibitors are immobilized on beads. […] PDE1C is a cAMP/cGMP nucleotide-binding protein that features two divalent metal cation cofactors. The hydroxamic acid moiety of KV-24 might chelate these metal cofactors, supporting the hypothesis that KV-24 binds the active site of PDE1C. […]
Given that local GTP production by NME1 and NME2 is essential for fueling dynamin-driven endocytosis, we investigated the effect of KV-50-mediated NME1/2 inhibition on fluorescent transferrin (TF) uptake in cells. HeLa cells were treated with KV-50 or known endocytosis inhibitors (Pitstop-2 and Dynasore), and surface-bound and internalized fluorescent TF were quantified. […]
LC-MS/MS. The different sample types were measured with different LC-MS/MS settings. MBLAC2 2-dose competition assays were measured with the Lumos1 setup, MBLAC2 9-dose competition assays were measured with the Lumos2 setup, and kinobeads assays were measured with the Eclipse setup. […]

[2] = tested on: compound-binding proteins such as HDACs, MBLAC2, ISOC1/2, ALDH2, and GATD3A; experiment: chemoproteomic competition assay, proteome-wide target binding profile; parameters: species or system human; conditions: dose-dependent competition
Protocol: MBLAC2 is a metalloenzyme predicted to harbor one or two Zn^2+ ions in its active site. […] In this assay, compounds of interest are incubated at increasing concentrations with a mixture of lysates of MV4–11 and SW620 cells. The compound-treated lysates are then mixed with bead-immobilized hydroxamic acid-containing compounds iA, iC, and iQ (immobilized Quisinostat), which pull down compound-binding proteins such as HDACs, MBLAC2, ISOC1/2, ALDH2, and GATD3A (Figure a) that can be identified and quantified by mass spectrometry (MS). Proteins targeted by the library compounds in a preincubation step are prevented from being pulled down by the immobilized probes, leading to a dose-dependent reduction in MS signal. Initially, 12 metal-chelating compounds were profiled at two concentrations (10 μM and 100 μM) (Figure S3).
Chemoproteomic competition assays
Sample preparation. For the MBLAC2 and HDAC inhibitor competition assay, the generation of affinity matrices, lysate generation, pulldown assay, and sample preparation were performed as described in detail in REF1. For the kinobeads assay, the generation of affinity matrices, lysate generation, pulldown assay, and sample preparation were performed as described in detail in REF2.
LC-MS/MS. The different sample types were measured with different LC-MS/MS settings. MBLAC2 2-dose competition assays were measured with the Lumos1 setup, MBLAC2 9-dose competition assays were measured with the Lumos2 setup, and kinobeads assays were measured with the Eclipse setup.
Peptides were analyzed via LC–MS/MS on a Dionex Ultimate3000 nano HPLC coupled to either one of two Orbitrap Fusion Lumos mass spectrometers, or to an Orbitrap Eclipse mass spectrometer, operated via the Thermo Scientific Xcalibur software.
In the all setups, peptides were loaded on a trap column (100 μm × 2 cm, packed in-house with Reprosil-Gold C18 ODS-3 5 μm resin, Dr. Maisch, Ammerbuch) and washed with 5 μL/min solvent A (0.1% formic acid in HPLC grade water) for 10 min. Peptides were then separated on an analytical column (75 μm × 40 cm, packed in-house with Reprosil-Gold C18 3μm resin, Dr. Maisch, Ammerbuch) using a 50 min gradient ranging from 4 to 32% solvent B (0.1% formic acid, 5% DMSO in acetonitrile) in solvent A (0.1% formic acid, 5% DMSO in HPLC grade water) at a flow rate of 300 nL/min.
The mass spectrometers were operated in data-dependent mode, automatically switching between MS1 and MS2 spectra. MS1 spectra were acquired over a mass-to-charge (m/z) range of 360–1300 m/z at a resolution of 60,000 (at m/z 200) in the Orbitrap using a maximum injection time of 50 ms and an automatic gain control (AGC) target value of 4e5.
In Lumos settings, up to 12 peptide precursors were isolated in (isolation width of 1.2 Th for Lumos1 and 1.7 for Lumos2, maximum injection time of 75 ms, AGC value of 1e5 for Lumos1 and 2e5 for Lumos2), fragmented by HCD using 30% normalized collision energy (NCE) and analyzed in the Orbitrap at a resolution of 15,000 (Lumos2) or 30,000 (Lumos1). The dynamic exclusion duration of fragmented precursor ions was set to 20 s (Lumos1) or 30 s (Lumos2). In Eclipse measurements, a cycle time of 2 s was chosen. Peptides were isolated in the quadrupole with an isolation offset of 1.2 (isolation width of 1.2 Th, maximum injection time of 54 ms, AGC target of 200%) and fragmented by […]

SMILES | inhibition of proliferation of protozoans (Toxoplasma gondii) | casein kinase 2 family members binding [1] | targets / off-targets bound [2]
O=C(NO)c1ccc(-c2nc3ccccc3n3cccc23)cc1 [KV-24] | potently inhibit the proliferation | reduced binding at two-digit μM concentrations | bound to HINT1 and NME4
O=C(NO)c1ccc(-c2nc3ccccc3c3ccccc23)cc1 [KV-30] | potently inhibit the proliferation | – | bound to HINT1 and NME4
